“And” between values parts separate entries of the source, which are not always exact repeats. Identical values can stand only once.

A word on the IC50: it is the point on the concentration scale where inhibition reaches its midpoint. A low value points to inhibition by little substance.

The subject of this experiment is P. falciparum 3D7 growth, pLDH absorbance. The experiment in a line: blood-stage malaria parasite growth potency – strain 3D7, dose response (AID 2305).
In turn, `COc1ccc(Nc2nc(N)c3cc(OC)c(OC)cc3n2)cc1OC` showed a 50% inhibitory concentration (IC50) of 0.73 µM.

`Cc1cc(N(C)C)nc(Nc2ccc(NC(=O)c3ccccc3Cl)cc2)n1` yielded an IC50 of 1.02 µM.

In the case of `N=C(N)c1ccc(-c2cc3ccc(C(=N)N)cc3[nH]2)cc1`, the IC50 amounted to 0.06 µM.

`Cc1ccc(C(=O)Nc2ccc(F)cc2)cc1-c1nc(NC2CC(C)(C)NC(C)(C)C2)nc2c1ccc(=O)n2-c1c(F)cccc1F` yielded a half-maximal inhibitory concentration (IC50) of 0.68 µM.

With `CC[C@H](NC(=O)c1ccc(NC(=O)OC(C)(C)C)cc1)C(=O)N[C@@H](CO)C(=O)NCCCCc1ccccc1`, the IC50 stood at 0.83 µM.

On to `CCCN(CC1CC1)c1nc(C)nc2c(-c3ccccc3)cc(C)cc12`, for which the IC50 turned out to be 1.02 µM.

Take `COc1cc(-c2nc(-c3ccc4c(c3)CCC4=NO)c(-c3ccncc3)[nH]2)ccc1OCCN1CCN(C)CC1`: the half-inhibitory concentration (IC50) was found to be 0.76 µM. The IC50 values of the last two compounds are within 1.5-fold of each other.

Consider `COc1ccc(-c2cc(C(=O)N[C@@H](CC3CCCCC3)C(=O)NCCN3CCCC3)ccc2O)cc1`, for which the IC50 is 0.87 µM. This IC50 and that of the compound before are within 1.5-fold of each other.

Compound `CCCCCCCN(CCCCCCC)CCNc1cc(C)nc2ccccc12` yielded a concentration for half-maximal inhibition (IC50) of 0.34 µM.

`O=C(c1cc(-c2cccs2)[nH]n1)N1CCN(S(=O)(=O)c2ccc(Cl)s2)CC1` returned a half-inhibitory concentration (IC50) of 0.87 µM. This IC50 is about 2.6-fold higher than that of the compound before.

As to `CCc1cn2c3c(cc(C(=O)N[C@@H](Cc4ccccc4)[C@H](O)CNC(C)(C)CCCC(C)C)cc13)N(C)S(=O)(=O)C2`, the half-maximal inhibitory concentration (IC50) amounted to 0.24 µM. Against the preceding compound, the IC50 is about 3.6-fold lower.

Compound `Cc1[nH]c(C)c(-c2ccc(C(=O)c3ccc(Cl)cc3)cc2)c(=O)c1Br` returned an IC50 of 0.81 µM.

`O=C(Nc1nc2cc(S(=O)(=O)NCCc3ccc(F)cc3)ccc2n1CCCn1ccnc1)c1ccc(Cl)cc1` yielded a half-maximal inhibitory concentration (IC50) of 1.11 µM.

As for `CN1CCCN(Cc2ccc(-c3ccc(NC(=O)c4cccc(Cl)c4)cc3)cc2)CC1`, the half-maximal inhibitory concentration (IC50) was 0.86 µM.

Turning to `CCOc1ccc(-c2nonc2NC(=O)c2ccc(Cl)cc2)cc1OCC`, the concentration for half-maximal inhibition (IC50) is 0.99 µM.

Regarding `CCC(C)NCCC(c1ccccc1)c1ccccc1O` (stereo not drawn), the IC50 was found to be 0.79 µM.

`COc1ccc(C=NNc2cc(C)nc3ccccc23)c2ccccc12` showed an IC50 of 0.75 µM.

On to `Cc1ccccc1Cn1c(CN2CCC(C(=O)NC3CC3)CC2)cc2ccccc21`, for which the IC50 was determined as 0.48 µM. This IC50 is about 1.6-fold lower than that of the compound before.

Compound `CCN(CC)CCN(Cc1ccc(-c2ccc(C(F)(F)F)cc2)cc1)C(=O)Cn1c(CCc2cccc(F)c2F)nc(=O)c2ccc(C)cc21` registered a half-inhibitory concentration (IC50) of 0.67 µM.

As for `Cc1cccc2[nH]c(-c3ccc(-c4ccc(NC(=O)Nc5ccsc5)cc4)s3)nc12`, the half-maximal inhibitory concentration (IC50) worked out at 0.11 µM.

With `Clc1ccccc1C=NNc1ccnc2ccccc12`, the IC50 stood at 0.85 µM.

`CCOC(=O)c1ccc(NC(=O)Nc2cccc(-c3cccc(-c4nc5ccccc5[nH]4)c3)c2)cc1` had an IC50 of 0.07 µM.

Take `Cn1nc(C(F)(F)F)c(-c2ccc(Br)cc2)c1NC(=O)Nc1ccc(F)cc1F`: the IC50 was 0.79 µM.

Turning to `N#Cc1c(Cl)cccc1Oc1ccc(S(=O)(=O)NC2CCC(CN3CCC(c4c[nH]c5ccccc45)CC3)CC2)cc1` (stereo not drawn), the IC50 is 0.71 µM and 1.07 µM.

In the case of `Cc1ccc(NC(=O)c2cnc(N3CCN(c4ccncc4)CC3)c(Cl)c2)cc1`, the IC50 was 0.96 µM.

In turn, `COc1ccc(-c2cccc(NC(=O)c3cccc(Cl)c3)c2)cc1CN1CCC(O)CC1` had an IC50 of 0.79 µM.

In turn, `CCC[C@@H](C(=O)NCCc1cccc(OC)c1)N1C(=O)c2c(ccc(OC)c2OC)C1C(=O)Nc1c(C)cccc1C` (stereo partly drawn) displayed a half-maximal inhibitory concentration (IC50) of 0.81 µM.

`Cc1cc(N[C@@H](Cc2ccccc2)C(=O)NCc2cccs2)nc(NCCc2ccc(F)cc2)n1` came in with a half-inhibitory concentration (IC50) of 0.85 µM.

The compound `Nc1nccc2ccc(Oc3ccncc3)cc12` showed an IC50 of 0.48 µM.

On to `CCC[C@@H]([C@@H](CC1CCCCC1)C(=O)N[C@H](C(=O)Nc1nccs1)C(C)(C)SCCOCCOCC)N(O)C=O`, for which the half-inhibitory concentration (IC50) stood at 0.08 µM.

Regarding `CN1C(=C2SC(=Nc3ccc4ncccc4c3)N(Cc3ccccc3)C2=O)Sc2ccc(Cl)cc21`, the half-inhibitory concentration (IC50) worked out at 1.06 µM.

Regarding `Cc1ccc(NC(=O)c2nc(N3CCN(c4ccncc4)CC3)ccc2Cl)cc1F`, the half-maximal inhibitory concentration (IC50) was 0.81 µM.

`Cc1nc(Nc2cc(Cl)ccc2O)nc(Nc2cc(Cl)ccc2O)c1[N+](=O)[O-]` had a concentration for half-maximal inhibition (IC50) of 0.03 µM.

The compound `Cc1[nH]c(C)c(-c2ccc(OCc3ccccc3C(F)(F)F)nc2)c(=O)c1Br` came in with a half-maximal inhibitory concentration (IC50) of 0.02 µM.

Take `Oc1ccc(Cl)cc1CN1CCC(CCOC(c2ccccc2)c2ccc(Cl)cc2)CC1` (stereo not drawn): the IC50 was determined as 0.39 µM. Compared with the last compound, the IC50 is about 20-fold higher.

On to `COc1ccc(O)c(C(=O)c2cc(C(=O)NC3CCCCC3)c(=O)n(C3CCCCC3)c2)c1`, for which the half-inhibitory concentration (IC50) is 0.66 µM.

In the case of `O=C(C1CCCC1)N1CCOC(CCN2CCC(c3ccccc3)CC2)(c2ccc(Cl)c(Cl)c2)C1` (stereo not drawn), the 50% inhibitory concentration (IC50) stood at 0.94 µM. The IC50 values of the last two compounds are within 1.5-fold of each other.

The compound `O=S(=O)(Nc1ccc(CCN2CCC(N3CCCCC3)CC2)cc1)c1ccccc1C(F)(F)F` had an IC50 of 1.02 µM.

With `COc1c(C2CCN(CCCCNC(=O)c3cc(-c4ccc(Cl)cc4)[nH]c3C)CC2)ccc2c1CCCC2`, the IC50 came out at 0.97 µM.

Regarding `O=C(Nc1ccc(OC2CCN(Cc3ccc(F)cc3)C2)c(Cl)c1)c1ccco1` (stereo not drawn), the IC50 amounted to 0.19 µM.

Turning to `CCCCOc1ccc(C(O)C(CN2CCCCC2)c2ccccc2)cc1` (stereo not drawn), the IC50 amounted to 0.89 µM.

The compound `COc1cc(OC)c(NC(=O)Nc2ccnc3ccccc23)cc1Cl` displayed an IC50 of 0.75 µM.

In the case of `O=S(=O)(c1cccc(Cl)c1F)N(CCC(O)(C(F)(F)F)C(F)(F)F)Cc1cccc(O)c1`, the IC50 is 0.92 µM.

(Values after PubChem BioAssay AID2305 (GlaxoSmithKline (GSK), 2010).)
